Test results as given in US20260216177A1, “CO-DRUG, CO-ADMINISTRATION, AND SEQUENTIAL ADMINISTRATION OF SELECTIVE TTR LIGAND AND C20-D3-RETINOL FOR ELIMINATION OF MECHANISM-BASED OCULAR ADVERSE EFFECTS IN TREATING MACULAR DEGENERATION AND TTR AMYLOIDOSIS” (The Trustees of Columbia University in the City of New York, priority 2023, published 2026).
“Also recorded” adds a separate entry of the source.

What was measured:
[1] = biological target: RBP4 (Homo sapiens, UniProt P02753); conditions: cited from earlier work
[2] = system: serum RBP4; conditions: mice; cited from earlier work
[3] = biological target: TTR tetramers (Homo sapiens, UniProt P02766); conditions: cited from earlier work
[4] = system: Abca4-/- mouse model; conditions: cited from earlier work
[5] = system: rhodopsin; experiment: Rhodopsin measured spectrophotometrically in retinal extracts of treated Balb/c mice; type: in vivo; conditions: Balb/c (wild-type) mice, 25 mg/kg daily oral, 10 days
Method: Thus, ACPHS-14 was used as a representative “first component” of the present disclosure in order to assess the feasibility of using β-carotene as the “second component” in the co-drug strategy. Accordingly, an experiment was conducted to determine whether partial reduction in functional rhodopsin (opsin with conjugated 11-cis-retinal) induced by oral ACPHS-14 in mice can be compensated by co-administration with β-carotene. An experiment was also conducted to determine whether co-administration of ACPHS-14 and β-carotene can restore retinal function as can be assessed by electroretinography (ERG). It was previously reported that ACPHS-14 can induce a pronounced reduction in serum RBP4 along with stabilization of TTR tetramers (Cioffi, C. L. et al. 2021).
The experiments were conducted in Balb/c mice. Three groups of mice were used: control untreated mice; mice treated with ACPHS-14; and mice treated with the ACPHS-14 plus β-carotene combination. […] Following compound dosing, retinal function in the mice was assessed by ERG as previously described (Racz, B. et al. 2018). […] Rhodopsin was measured spectrophotometrically in the retinal extracts using a previously published protocol (Racz, B. et al. 2018).

[6] = system: Balb/c mice; experiment: Retinal function by electroretinography (scotopic ERG a-wave) in treated Balb/c mice; type: in vivo; conditions: 1.89 log cd*s/m2 light intensity; 25 mg/kg daily oral, 10 days
Method: The experiments were conducted in Balb/c mice. Three groups of mice were used: control untreated mice; mice treated with ACPHS-14; and mice treated with the ACPHS-14 plus β-carotene combination. ACPHS-14 was administered through oral gavage at a 25 mg/kg dose formulated into the chow to ensure a standard daily oral dosing of the compound at the 25 mg/kg dose. β-carotene was dissolved in olive oil and was administered through oral gavage daily at a daily 6 mg/kg dose. Dosing duration was 10 days. Following compound dosing, retinal function in the mice was assessed by ERG as previously described (Racz, B. et al. 2018).

[7] = in vivo; cited from earlier work
[8] = in vitro; cited from earlier work
[9] = cited from earlier work
[10] = ATTR-CM patients, Phase III; cited from earlier work
[11] = cited from earlier work; remark: listed apart in the source
[12] = long-term use in cancer patients; cited from earlier work
[13] = Phase 2, dry AMD patients; no ocular AEs with placebo; cited from earlier work
[14] = patients treated for TTR amyloidosis; cited from earlier work

Cc1n[nH]c(C)c1N1CCN(c2cc(C(=O)O)ccc2F)CC1 [ACPHS-14]
competition with retinol binding to RBP4 [1]: does not compete with retinol binding to RBP4 | RBP4-lowering efficacy [2]: excellent RBP4-lowering efficacy; also recorded: significantly decreasing the concentration of serum RBP4 | stabilization of TTR tetramers [3]: inducing stabilization of TTR tetramers | bisretinoid reduction ([4]; Abca4-/- mouse model): excellent bisretinoid reduction | rhodopsin in comparison to untreated mice [5]: significantly reduced rhodopsin | reduction of scotopic ERG a-wave amplitude in comparison to untreated mice [6]: 45% | oral bioavailability [7]: orally bioavailable

[2H]C([2H])([2H])C(/C=C/C=C(C)/C=C/C1=C(C)CCCC1(C)C)=C\C=O [C20-D3-retinaldehyde]
rate of dimer formation relative to unlabeled retinaldehyde (times less rapidly) [8]: 12 times | reduction of bisretinoid A2E formation [8]: 7 fold

[2H]C([2H])([2H])C(/C=C/C=C(C)/C=C/C1=C(C)CCCC1(C)C)=C\COC(C)=O [C20-D3-retinyl acetate]
inhibition of bisretinoid synthesis and normalization of complement system dysregulation in the retina ([4]; Abca4-/- mice, model of Stargardt disease (STGD1)): effective

CC(=O)N1CCc2c(C(=O)N3CCC(c4ccc(F)c(F)c4C(F)(F)F)CC3)n[nH]c2C1 [Tinlarebant]
ocular adverse effects in a subset of patients [9]: asymptomatic delayed dark adaptation (measured only instrumentally) or symptomatic xanthopsia

O=C(O)c1ccc2nc(-c3cc(Cl)cc(Cl)c3)oc2c1 [compound 3, tafamidis]
reduction of the rate of cardiovascular-related hospitalizations compared to placebo controls [10]: 32% | reduction of the risk of death compared to placebo controls [10]: 30% | patients who do not respond [11]: Approximately 30%

CC1=C(/C=C/C(C)=C/C=C/C(C)=C/C(=O)Nc2ccc(O)cc2)C(C)(C)CCC1 [fenretinide]
yearly prevalence of transient and reversible ocular AEs such as diminished dark adaptation [12]: 5.8-6.7% | drug-treated patients with reversible reduction in dark adaptation [13]: ~ 10%

patisiran
ocular symptoms in clinical use [14]: symptoms of night blindness in a subset of patients
